Assays:
Format in all cases: biochemical
Ypq2 [1] = molecular target: T1, Ypq2 (Saccharomyces cerevisiae, UniProt Q06328); test: inhibition of Ypq2-dependent […]-Arg uptake into isolated vacuoles, […] min; conditions: 50 μM 14C-Arg, no ATP; competitor added simultaneously
T1 construct: native full-length protein in isolated intact vacuoles; ypq1-2-3 triple-mutant background subtracted from ypq1-3 double-mutant
T1 sequence (Q06328 1-317): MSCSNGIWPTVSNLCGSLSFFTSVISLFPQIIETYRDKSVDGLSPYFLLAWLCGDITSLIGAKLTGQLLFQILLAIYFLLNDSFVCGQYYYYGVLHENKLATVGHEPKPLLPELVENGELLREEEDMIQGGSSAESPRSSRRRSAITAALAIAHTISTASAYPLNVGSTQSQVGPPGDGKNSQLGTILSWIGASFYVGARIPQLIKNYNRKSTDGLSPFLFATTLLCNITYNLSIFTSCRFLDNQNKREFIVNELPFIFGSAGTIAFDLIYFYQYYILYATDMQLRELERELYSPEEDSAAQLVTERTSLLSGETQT

Ypq2 [2] = molecular target: T1, Ypq2; test: as above; conditions: read-out: % inhibition at 5 mM
Avt1 = molecular target: T2, Avt1 (Saccharomyces cerevisiae, UniProt P47082); test: 3H-L-tyrosine uptake into isolated intact vacuoles, wild type versus avt1 deletion; conditions: 50 μM 3H-tyrosine, 4 mM ATP, 27 °C; needs H+ gradient; labelled compound
T2 construct: native full-length protein in isolated intact vacuoles; wild type versus avt1 deletion mutant
T2 sequence (P47082 1-602): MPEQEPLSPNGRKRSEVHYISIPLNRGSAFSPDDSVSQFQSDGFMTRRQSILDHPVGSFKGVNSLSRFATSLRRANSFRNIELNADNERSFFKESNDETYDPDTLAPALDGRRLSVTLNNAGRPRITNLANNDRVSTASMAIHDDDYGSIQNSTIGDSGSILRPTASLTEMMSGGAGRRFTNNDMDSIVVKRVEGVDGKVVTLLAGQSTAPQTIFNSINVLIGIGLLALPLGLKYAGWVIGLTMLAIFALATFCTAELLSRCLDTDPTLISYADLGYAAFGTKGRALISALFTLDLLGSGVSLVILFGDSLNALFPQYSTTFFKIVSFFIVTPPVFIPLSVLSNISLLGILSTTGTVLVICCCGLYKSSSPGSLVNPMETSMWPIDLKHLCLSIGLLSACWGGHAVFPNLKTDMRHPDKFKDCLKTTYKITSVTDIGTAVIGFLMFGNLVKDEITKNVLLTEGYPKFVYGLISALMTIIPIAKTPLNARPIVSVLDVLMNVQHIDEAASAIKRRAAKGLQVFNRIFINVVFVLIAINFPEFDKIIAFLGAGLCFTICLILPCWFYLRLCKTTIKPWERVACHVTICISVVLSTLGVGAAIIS

SMILES	% inhibition at 5 mM (Ypq2 [1])	further results
N=C(N)NOCC[C@H](N)C(=O)O [Canavanine]	Canavanine, the D-Arg and the L- and D-isomers of His completely inhibited the uptake	–
N=C(N)NCCC[C@@H](N)C(=O)O [D-Arg]	Canavanine, the D-Arg and the L- and D-isomers of His completely inhibited the uptake	–
N[C@H](Cc1c[nH]cn1)C(=O)O [D-isomer of His]	Canavanine, the D-Arg and the L- and D-isomers of His completely inhibited the uptake	–
N[C@@H](Cc1cnc[nH]1)C(=O)O [His]	Canavanine, the D-Arg and the L- and D-isomers of His completely inhibited the uptake	–
NCCCC[C@H](N)C(=O)O [Lys]	–	inhibition at 5000 µM (Ypq2 [2]): ~50%
NCCC[C@H](N)C(=O)O [ornithine]	–	inhibition at 5000 µM (Ypq2 [2]): ~50%
N[C@@H](Cc1ccc(O)cc1)C(=O)O [tyrosine]	–	3H-L-tyrosine uptake into isolated intact vacuoles, wild type versus avt1 deleti (Avt1): Nor was it detected in vacuoles isolated from the avt1Δ mutant

From paper PMC7440668, “Nitrogen coordinated import and export of arginine across the yeast vacuolar membrane” (PLoS Genetics, 2020)
